# In ChEMBL document CHEMBL5331089, “Mucormycosis: A hidden mystery of fungal infection, possible diagnosis, treatment and development of new therapeutic agents” (Eur J Med Chem, 2023):
# Experiments:
# Rhizopus arrhizus [1] = test: Antifungal activity against Rhizopus oryzae clinical isolate assessed as fungal growth inhibition measured after 24 to 72 hrs by microtitre plate reader analysis; format: functional; details: time 24-72 hrs
# Rhizomucor pusillus [2] = test: Antifungal activity against Rhizomucor pusillus clinical isolate assessed as fungal growth inhibition measured after 48 hrs by microtitre plate reader analysis; format: functional
# Rhizopus arrhizus [3] = test: Antifungal activity against Rhizopus oryzae CBS 112.07 assessed as fungal growth inhibition measured after 48 hrs by microtitre plate reader assay; format: functional
# [4] = Antifungal activity against Rhizopus microsporus NRRL 514 assessed as fungal growth inhibition measured after 48 hrs by microtitre plate reader assay; format: functional
# Rhizomucor pusillus [5] = test: Antifungal activity against Rhizomucor pusillus CN(M)231 assessed as fungal growth inhibition measured after 48 hrs by microtitre plate reader assay; format: functional
# Rhizomucor miehei [6] = test: Antifungal activity against Rhizomucor miehei CBS 360.92 assessed as fungal growth inhibition measured after 48 hrs by microtitre plate reader assay; format: functional
# Lichtheimia corymbifera [7] = test: Antifungal activity against Absidia corymbifera SZMC 2010 assessed as fungal growth inhibition measured after 48 hrs by microtitre plate reader assay; format: functional
# [8] = tested on: Syncephalastrum racemosum; test: Antifungal activity against Syncephalastrum racemosum SZMC 2011 assessed as fungal growth inhibition measured after 48 hrs by microtitre plate reader assay; format: functional
# Rhizopus arrhizus [9] = test: Antifungal activity against Rhizopus oryzae CBS 146.90 assessed as fungal growth inhibition; format: functional
# Rhizomucor pusillus [10] = test: Antifungal activity against Rhizomucor pusillus ETH M4920 assessed as fungal growth inhibition; format: functional
# Rhizopus arrhizus [11] = test: Antifungal activity against Rhizopus oryzae clinical isolate assessed as fungal growth inhibition by checkerboard broth microdilution assay; format: functional
# Rhizopus arrhizus [12] = test: Antifungal activity against Rhizopus oryzae CBS 109939 assessed as fungal growth inhibition by checkerboard broth microdilution assay; format: functional
# Rhizomucor miehei [13] = test: Antifungal activity against Rhizomucor miehei CBS 360.92 assessed as fungal growth inhibition; format: functional
# Mucor mucedo = test: Antifungal activity against Mucor mucedo WRL CN(M) assessed as fungal growth inhibition; format: functional
# Mucor racemosus = test: Antifungal activity against Mucor racemosus WRL CN(M)304 assessed as fungal growth inhibition; format: functional
# Mucor circinelloides [14] = test: Antifungal activity against Mucor circinelloides MS 12 assessed as fungal growth inhibition; format: functional
# Absidia glauca = test: Antifungal activity against Absidia glauca SZMC 11072 assessed as fungal growth inhibition; format: functional
# [15] = tested on: Syncephalastrum racemosum; test: Antifungal activity against Syncephalastrum racemosum assessed as fungal growth inhibition measured for 24 to 24 hrs by agar well diffusion assay; format: functional, organism-based; details: for MIC: time 24-24 hrs
# [16] = tested on: Syncephalastrum racemosum; test: Antifungal activity against Syncephalastrum racemosum RCMB 016001 assessed as zone of inhibition measured after 24 hrs; format: functional
# Mucor circinelloides [17] = test: Antifungal activity against Mucor circinelloides assessed as fungal growth inhibition measured at 36 to 48 hrs; format: functional; details: time 36-48 hrs
# Rhizomucor pusillus [18] = test: Antifungal activity against Rhizomucor pusillus assessed as fungal growth inhibition measured at 36 to 48 hrs; format: functional; details: time 36-48 hrs
# Rhizopus delemar = test: Antifungal activity against Rhizopus delemar assessed as fungal growth inhibition; format: functional; details: read-out: MEC
# Rhizopus arrhizus [19] = test: Antifungal activity against Rhizopus oryzae assessed as fungal growth inhibition; format: functional; details: read-out: MEC
# Lichtheimia corymbifera [20] = test: Antifungal activity against Absidia corymbifera assessed as fungal growth inhibition; format: functional; details: read-out: MEC
# Mucor circinelloides [21] = test: Antifungal activity against Mucor circinelloides assessed as fungal growth inhibition; format: functional; details: read-out: MEC
# Mucor indicus = test: Antifungal activity against Mucor indicus assessed as fungal growth inhibition; format: functional; details: read-out: MEC
smiles,measurement,setting,value
CC(C)n1c(/C=C/[C@H](O)C[C@H](O)CC(=O)O)c(-c2ccc(F)cc2)c2ccccc21,MIC,Rhizopus arrhizus [1],2 µg/mL
same,MIC,Rhizomucor pusillus [2],0.4 µg/mL
same,MIC,Rhizopus arrhizus [3],3.6 µg/mL
same,MIC90,[4],33 µg/mL
same,MIC,Rhizomucor pusillus [5],0.4 µg/mL
same,MIC90,Rhizomucor miehei [6],3.6 µg/mL
same,MIC90,Lichtheimia corymbifera [7],3.6 µg/mL
same,MIC,[8],11 µg/mL
same,MIC,Rhizopus arrhizus [9],12.5 µg/mL
same,MIC,Rhizomucor pusillus [10],6.25 µg/mL
same,MIC,Rhizopus arrhizus [11],2 µg/mL
same,MIC,Rhizopus arrhizus [12],2 µg/mL
same,MIC,Rhizomucor miehei [13],3.12 µg/mL
same,MIC,Mucor mucedo,6.25 µg/mL
same,MIC,Mucor racemosus,25 µg/mL
same,MIC,Mucor circinelloides [14],4 µg/mL
same,MIC,Absidia glauca,6.25 µg/mL
CCOC(=O)N1C/C(=C\c2ccc(OC)cc2)C(=O)[C@@]2(C1)[C@H](c1ccc(OC)cc1)[C@H]1CCCN1[C@]21C(=O)Nc2ccccc21,IC50,[15],11.3 µg/mL
same,MIC,[15],0.98 µg/mL
CCOC(=O)N1C/C(=C\c2ccc(Cl)cc2)C(=O)[C@@]2(C1)[C@H](c1ccc(Cl)cc1)CN(C)[C@]21C(=O)Nc2ccccc21,inhibition zone (IZ),[16],39.46 mm
same,IC50,[15],16.4 µg/mL
same,MIC,[15],1.95 µg/mL
CCOC(=O)N1C/C(=C\c2ccc([N+](=O)[O-])cc2)C(=O)[C@@]2(C1)[C@H](c1ccc([N+](=O)[O-])cc1)[C@H]1CCCN1[C@]21C(=O)Nc2ccccc21,inhibition zone (IZ),[16],39.46 mm
same,IC50,[15],10.6 µg/mL
same,MIC,[15],0.49 µg/mL
CCOC(=O)N1C/C(=C\c2ccc(F)c(F)c2)C(=O)[C@@]2(C1)[C@H](c1ccc(F)c(F)c1)[C@H]1CCCN1[C@]21C(=O)Nc2ccccc21,IC50,[15],11.3 µg/mL
same,MIC,[15],1.95 µg/mL
CCOC(=O)N1C/C(=C\c2cc(OC)c(OC)c(OC)c2)C(=O)[C@@]2(C1)[C@H](c1cc(OC)c(OC)c(OC)c1)[C@H]1CCCN1[C@]21C(=O)Nc2ccccc21,inhibition zone (IZ),[16],39.46 mm
Cc1ccc([C@H]2[C@@]3(SC(=O)NC3=O)C3CCCN3[C@@]23C(=O)Nc2ccccc23)cc1 (stereo partly specified),inhibition zone (IZ),[16],19 mm
CCOC(=O)N1C/C(=C\c2cc(OC)c(OC)c(OC)c2)C(=O)[C@@]2(C1)[C@H](c1cc(OC)c(OC)c(OC)c1)CN(C)[C@]21C(=O)Nc2ccccc21,inhibition zone (IZ),[16],39.46 mm
O=C1NC(=O)[C@]2(S1)C1CCCN1[C@@]1(C(=O)Nc3ccccc31)[C@H]2c1ccccc1 (stereo partly specified),inhibition zone (IZ),[16],14 mm
Cc1cc(N2CCN(c3ccc(C(=O)N[C@H]4CCCC[C@@H]4O)cc3)CC2)ccc1OC[C@@H]1CO[C@@](Cn2cncn2)(c2ccc(F)cc2F)C1,MIC,Mucor circinelloides [17],2 µg/mL
same,MIC,Rhizomucor pusillus [18],2 µg/mL
C[C@@H]1C[C@H]1/C=C/[C@@H]1C[C@H]1[C@@H]1C[C@H]1[C@@H]1C[C@H]1[C@@H]1C[C@H]1/C=C/C=C/C(=O)NC[C@H]1O[C@@H](N2CCC(=O)NC2=O)[C@H](O)[C@@H]1O,minimal effective concentration,Rhizopus delemar,0.016 µg/mL
same,minimal effective concentration,Rhizopus arrhizus [19],≤ 0.008 µg/mL
same,minimal effective concentration,Lichtheimia corymbifera [20],≤ 0.008 µg/mL
same,minimal effective concentration,Mucor circinelloides [21],0.016 µg/mL
same,minimal effective concentration,Mucor indicus,≤ 0.008 µg/mL
CCOC(=O)N1C/C(=C\c2ccc([N+](=O)[O-])cc2)C(=O)[C@@]2(C1)[C@H](c1ccc([N+](=O)[O-])cc1)CN(C)[C@]21C(=O)Nc2ccccc21,inhibition zone (IZ),[16],39.46 mm
CCOC(=O)N1C/C(=C\c2ccc(F)cc2)C(=O)[C@@]2(C1)[C@H](c1ccc(F)cc1)CN(C)[C@]21C(=O)Nc2ccccc21,inhibition zone (IZ),[16],39.46 mm
CCOC(=O)N1C/C(=C\c2ccc(F)c(F)c2)C(=O)[C@@]2(C1)[C@H](c1ccc(F)c(F)c1)CN(C)[C@]21C(=O)Nc2ccccc21,inhibition zone (IZ),[16],39.46 mm
